# In PubChem BioAssay (NCI):
#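 Protocol summary: plate cells (96-well), add compound at 5 concentrations, incubate 48 h, interpolate endpoints linearly. At the TGI there is no net growth.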 Where a SMILES comes first, the peptide text is derived from it. The star is where a group is joined. Boc = CC(C)(C)OC(=O)*
# Assays:
# Assay in all cases: NCI tumour cell line growth inhibition, 48 h
# 786-0 renal = test system: 786-0 renal
# A549 NSCLC = test system: A549 NSCLC
# CAKI-1 renal = test system: CAKI-1 renal
# COLO 205 colon = test system: COLO 205 colon
# EKVX NSCLC = test system: EKVX NSCLC
# HCT-116 colon = test system: HCT-116 colon
# HCT-15 colon = test system: HCT-15 colon
# KM12 colon = test system: KM12 colon
# MCF7 breast = test system: MCF7 breast
# NCI-H460 lung = test system: NCI-H460 lung
# OVCAR-4 ovarian = test system: OVCAR-4 ovarian
# OVCAR-5 ovarian = test system: OVCAR-5 ovarian
# PC-3 prostate = test system: PC-3 prostate
# SK-MEL-2 melanoma = test system: SK-MEL-2 melanoma
# SK-OV-3 ovarian = test system: SK-OV-3 ovarian
# TK-10 renal = test system: TK-10 renal
# U251 CNS = test system: U251 CNS
# UACC-257 melanoma = test system: UACC-257 melanoma
# HT29 colon = test system: HT29 colon
Compound,TGI (786-0 renal) [µM],TGI (A549 NSCLC) [µM],TGI (CAKI-1 renal) [µM],TGI (COLO 205 colon) [µM],TGI (EKVX NSCLC) [µM],TGI (HCT-116 colon) [µM],TGI (HCT-15 colon) [µM],TGI (KM12 colon) [µM],TGI (MCF7 breast) [µM],TGI (NCI-H460 lung) [µM],TGI (OVCAR-4 ovarian) [µM],TGI (OVCAR-5 ovarian) [µM],TGI (PC-3 prostate) [µM],TGI (SK-MEL-2 melanoma) [µM],TGI (SK-OV-3 ovarian) [µM],TGI (TK-10 renal) [µM],TGI (U251 CNS) [µM],TGI (UACC-257 melanoma) [µM],TGI (HT29 colon) [µM]
CCOC(=O)c1cc2c(ccc3cc(C(=O)OCC)[nH]c32)[nH]1,31.3,> 100,> 100,> 100,> 100,> 100,> 100,> 100,> 100,> 100,32.4,> 100,> 100,> 100,> 100,> 100,19.1,> 100,
COc1ccc(N(C)S(=O)(=O)c2ccccc2)cc1,> 100,> 100,> 100,> 100,> 100,> 100,> 100,> 100,> 100,> 100,> 100,> 100,> 100,> 100,> 100,> 100,> 100,> 100,> 100
O=C(Nc1cc(C(=O)Nc2cccc(S(=O)(=O)O)c2)cc(C(=O)Nc2cccc(S(=O)(=O)O)c2)c1)c1cccc(C(=O)Nc2cc(C(=O)Nc3cccc(S(=O)(=O)O)c3)cc(C(=O)Nc3cccc(S(=O)(=O)O)c3)c2)c1,> 100,> 100,> 100,> 100,> 100,> 100,> 100,> 100,> 100,> 100,> 100,> 100,> 100,> 100,> 100,> 100,> 100,> 100,> 100
Cc1ccc2c(c1)C(=O)/C(=C\c1ccccc1)CCS2(=O)=O,25.2,> 87.8,49.9,42,> 100,18.7,19.7,28.2,18.9,24.9,46.5,> 55.7,> 71.1,89.8,60.8,30.7,31,31.6,24.1
COc1c(C)c(C/C=C(\C)CCCCO[Si](C(C)C)(C(C)C)C(C)C)c(OC)c2ccccc12,> 100,> 100,> 100,> 100,> 100,> 100,> 100,> 100,> 100,> 100,> 100,> 100,> 100,> 100,> 100,> 100,> 100,> 100,> 100
COc1ccc(NC(=O)CC(=O)N2N=C(N3CCCCC3)CC2c2ccccc2)cc1 (stereo unspecified),> 100,> 100,> 100,> 100,> 100,> 100,> 100,> 100,> 100,> 100,> 100,> 100,> 100,> 100,,> 100,> 100,> 100,> 100
CC(NC(=O)C(NC(=O)OC(C)(C)C)C(C)C)C(=O)N1CCCC1C(=O)NCC(=O)NC(C(=O)NCC(=O)O)C(C)C (stereo unspecified) (Boc-VAPGVG-OH; configuration not given here),> 100,,> 100,> 100,> 100,> 100,> 100,,> 100,> 100,> 100,> 100,> 100,> 100,> 100,> 100,> 100,> 100,> 100
CC1CN=C(Nc2ccc(F)cc2F)S1 (stereo unspecified),> 100,> 100,> 100,> 100,> 100,> 100,> 100,> 100,> 100,> 100,> 100,> 100,> 100,> 100,> 100,> 100,> 100,> 100,
C/C=C/c1c(O)c(=O)c2c(OC)cc(OC)c3c4c(OC)cc(OC)c5c(=O)c(O)c(/C=C/C)c(c1c23)c54,38.2,> 100,21.1,19.1,40.5,28,,31.6,> 100,44.3,29.5,68.9,19.8,24.9,> 100,,47.1,45.5,23.8
CC(=O)C1C(=O)C(=O)N(c2cccc(C)c2C)C1=O (stereo unspecified),> 100,> 100,> 100,> 100,> 100,> 100,,> 100,> 100,,,> 100,> 100,> 100,> 100,> 100,,> 100,> 100
CC(C)CNC(=O)CCc1cccc2c1oc1c(CCN)cccc12,24.9,35.6,31.5,19.7,27.6,21.5,43,28.4,46.1,36.9,34,28.7,34.3,36.7,31.6,,18.9,24.8,22.6
CC(C)(C)OC(=O)N(O)[C@@H]1C=C[C@H](n2cnc3c(N)ncnc32)C1,> 100,> 100,> 100,> 100,> 100,> 100,> 100,> 100,> 100,> 100,> 100,> 100,> 100,> 100,> 100,> 100,> 100,> 100,
CCN(CC)CC(=O)Nc1c(C(N)=O)nnn1Cc1cc(Cl)c(C(=O)c2ccc(Cl)cc2)c(Cl)c1,31.4,79.6,65.1,33.2,> 100,32.1,34.4,35.8,32.4,,> 100,40.7,38.7,28.4,51.5,57.4,41.1,32.6,38.6
CCCCON1C[C@@H](O)C(O)[C@@H](O)C1 (stereo partly specified),> 100,> 100,> 100,> 100,> 100,> 100,> 100,> 100,> 100,> 100,> 100,> 100,> 100,> 100,,> 100,> 100,> 100,> 100
COc1cc(N=CN(C)C)c2ncccc2c1,> 100,> 100,> 100,> 100,> 100,> 100,> 100,,> 100,,> 100,> 100,> 100,> 100,> 100,> 100,> 100,> 100,> 100
O=C1/C(=C/C=C/c2ccccc2)N=C(c2ccccc2)N1C1Nc2cc3c(cc2S1)NC(N1C(=O)/C(=C/C=C/c2ccccc2)N=C1c1ccccc1)S3 (stereo unspecified),> 100,,> 100,,> 100,> 100,> 100,> 100,> 100,> 100,> 100,> 100,> 100,> 100,> 100,> 100,> 100,> 100,> 100
CC1=NN(C(=O)CC(=O)Nc2ccccc2C)C(=O)C1N=Nc1ccc(C(=O)O)cc1 (stereo unspecified),> 100,> 100,> 100,> 100,> 100,> 100,> 100,> 100,> 100,> 100,> 100,> 100,> 100,> 100,,> 100,> 100,> 100,> 100
Cc1ccc(/C(O)=C/c2nc3ccccc3oc2=O)cc1,> 100,> 100,> 100,> 100,> 100,> 100,> 100,> 100,> 100,> 100,> 100,> 100,> 100,> 100,,> 100,> 100,> 100,> 100
COC(=O)/C=C/c1ccc2c(c1)CCC2,> 100,> 100,> 100,,> 100,98,> 100,,> 100,> 100,> 100,> 100,> 100,> 100,> 100,> 100,> 100,> 100,> 100
C=CC(Cl)(CBr)CCC(Br)=C(C)C (stereo unspecified),67.6,> 100,21.2,33.4,> 100,63,35.9,40.7,31.5,38,46.6,61.2,52.7,36.8,,58.8,30.5,59.5,39.8
O=C(O)CN1CCNCCN(CP(=O)(O)O)CC1,> 29.2,> 100,> 100,> 100,> 100,> 27.5,> 100,> 100,> 100,> 100,> 100,> 100,> 100,> 100,> 100,> 100,> 100,> 100,
Cc1ccc(S(=O)(=O)N2CC3OC(C)(C)OC3C2CO)cc1 (stereo unspecified),> 100,> 100,> 100,> 100,,> 100,> 100,> 100,> 100,> 100,> 100,> 100,> 100,> 100,> 100,> 100,> 100,> 100,> 100
O=c1[nH]nc(Cc2ccccc2)n1/N=C/c1c(O)ccc2ccccc12,30.3,> 100,88.8,> 100,57.8,45.6,> 100,81.9,> 100,,67.1,,64,> 100,,> 100,38.6,> 100,83.9
C#CCOC(=O)c1ccccc1O,> 100,,> 100,> 100,> 100,> 100,> 100,> 100,> 100,> 100,> 100,> 100,> 100,> 100,> 100,> 100,> 100,> 100,
COc1ccc(CN2C[C@H]3[C@@H](CC(=O)O[C@H]3C)CC2=O)cc1,> 100,> 100,> 100,> 100,> 100,> 100,> 100,> 100,> 100,> 100,> 100,> 100,> 100,> 100,> 100,,> 100,> 100,> 100
CC(=O)OC1CCN(C(=O)c2ccccc2)CC1CC1(c2cc3ccccc3[nH]2)OCCO1 (stereo unspecified),> 100,> 100,> 100,> 100,> 100,> 100,> 100,> 100,> 100,,> 100,> 100,> 100,> 100,> 100,> 100,> 100,> 100,> 100
